Reference: patent publication US10633407B2, “14-membered ketolides and methods of their preparation and use” (President and Fellows of Harvard College, priority 2014, dated 2020)
Values after ≈ are worked out from the molar mass of the structure shown.

Columns and labels:
Test in all cases: CLSI broth dilution MIC determination
Type in all cases: cell-based
[1] = tested on: H. influenzae Erythro >4, Azithro 1; settings: Haemophilus influenzae; read-out: MIC
Excerpt: MIC data was collected for the novel macrolides that this platform has produced against over 21 unique strains of B. subtilis, E. coli, S. aureus, S. pneumoniae, and H. influenzae, including several multidrug-resistant strains, with a special focus on macrolide resistant mechanisms (vide supra). […] CLSI standard procedures for broth dilution MIC determination were used. […] These genotypes can be constitutive or inducible.

E. coli NDM-1 = settings: Escherichia coli, NDM1, read-out: MIC
Summary of the method: (§1)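 CLSI broth-dilution MIC. Controls: azithromycin, solithromycin (many cases). Macrolide-resistance genotypes constitutive or inducible.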

E. coli CTX-M-14 = settings: Escherichia coli, CTXM14, read-out: MIC
Summary of the method: as §1

E. coli ATCC 25922 = settings: Escherichia coli, ATCC25922, E. coli ATCC 25922 (MP-4); read-out: MIC
Summary of the method: as §1

S. aureus MRSA: USA300 = settings: Staphylococcus aureus; S. aureus MRSA: USA300 (MP-549, msr(a)); read-out: MIC
Summary of the method: as §1

K. pneumoniae TEM-10 = settings: Klebsiella pneumoniae, TEM10, read-out: MIC
[2] = tested on: S. pneumoniae mef A genotype (first strain so labelled); settings: Streptococcus pneumoniae, first strain (MP-626 UNT-038)
Summary of the method: as §1

E. coli TEM-1 = settings: Escherichia coli, TEM1
Summary of the method: as §1

S. aureus erm A genotype = settings: Staphylococcus aureus; S. aureus erm A genotype (MP-620 UNT-146); read-out: MIC
Summary of the method: as §1

[3] = tested on: S. pneumoniae erm B + mef A genotype; settings: Streptococcus pneumoniae
Summary of the method: as §1

[4] = tested on: S. pneumoniae mef A genotype (second strain so labelled); settings: Streptococcus pneumoniae, second strain (MP-627 UNT-039), read-out: MIC
Summary of the method: as §1

S. aureus ATCC 29213 = settings: Staphylococcus aureus, ATCC29213; S. aureus ATCC 29213 (MP-12); read-out: MIC
Summary of the method: as §1

H. influenzae ATCC49247 = settings: Haemophilus influenzae, read-out: MIC
Summary of the method: as §1

S. pneumoniae ATCC 49619 = settings: Streptococcus pneumoniae, ATCC49619, S. pneumoniae ATCC 49619 (MP-21); read-out: MIC
Summary of the method: as §1

S. aureus USA600, GISA = settings: Staphylococcus aureus; S. aureus USA600, GISA (MP-619 UNT-120); read-out: MIC
Summary of the method: as §1

[5] = tested on: S. pneumoniae erm B + tet(M,O) genotype; settings: Streptococcus pneumoniae
Summary of the method: as §1

S. aureus MRSA: USA100 = settings: Staphylococcus aureus; S. aureus MRSA: USA100 (MP-618 UNT-096); read-out: MIC
Summary of the method: as §1

K. pneumoniae SHV-12 = settings: Klebsiella pneumoniae, SHV12, read-out: MIC
[6] = tested on: S. pyogenes Macrolide-resistant; settings: Streptococcus pyogenes, S. pyogenes Macrolide-resistant (MP-625 UNT-014); read-out: MIC
E. faecalis ATCC 29212 = settings: Enterococcus faecalis, ATCC29212, E. faecalis ATCC 29212 (MP-24); read-out: MIC
A. baumannii ATCC 19606 = settings: Acinetobacter baumannii, ATCC19606; A. baumannii ATCC 19606 (MP-15); read-out: MIC
[7] = tested on: E. faecalis Vancomycin-resistant; settings: Enterococcus faecalis, E. faecalis Vancomycin-resistant (UNT-039); read-out: MIC
K. pneumoniae ATCC 10031 = settings: Klebsiella pneumoniae, ATCC10031, K. pneumoniae ATCC 10031 (MP-14); read-out: MIC
[8] = tested on: A. baumannii chromosomal class C; settings: Acinetobacter baumannii, read-out: MIC
K. pneumoniae KPC-2 = settings: Klebsiella pneumoniae, KPC2, read-out: MIC
A. baumannii IMP-4 = settings: Acinetobacter baumannii, IMP4, read-out: MIC
S. pyogenes ATCC 19615 = settings: Streptococcus pyogenes, ATCC19615, S. pyogenes ATCC 19615 (MP-19); read-out: MIC
[9] = tested on: A. baumannii imipenem-resistant; settings: Acinetobacter baumannii, read-out: MIC
[10] = tested on: P. aeruginosa HPA101-1477; settings: Pseudomonas aeruginosa, HPA1011477, read-out: MIC
P. aeruginosa ATCC 27853 = settings: Pseudomonas aeruginosa, ATCC27853; P. aeruginosa ATCC 27853 (MP-3); read-out: MIC

C=C1C(=O)[C@H](C)C[C@@](C)(OC)[C@H](O[C@@H]2OC(C)CC(N(C)C)C2O)[C@@H](C)C(=O)[C@@H](C)C(=O)O[C@H](CC)[C@@]2(C)OC(=O)N(CCCCn3cc(-c4cccc(N)c4)nn3)[C@H]12 (stereo partly drawn) [FSM-21828]
MIC [1]: 16 µg/mL (≈ 19.4 µM)
MIC (E. coli NDM-1): > 32 µg/mL
MIC (E. coli CTX-M-14): > 32 µg/mL
MIC (E. coli ATCC 25922): > 32 µg/mL
MIC (S. aureus MRSA: USA300): > 32 µg/mL
MIC (K. pneumoniae TEM-10): > 32 µg/mL
MIC [2]: 0.0625 µg/mL (≈ 0.0758 µM)
MIC (E. coli TEM-1): > 32 µg/mL
MIC (S. aureus erm A genotype): > 32 µg/mL
MIC [3]: 32 µg/mL (≈ 38.8 µM)
MIC [4]: 0.5 µg/mL (≈ 0.606 µM)
MIC (S. aureus ATCC 29213): 4 µg/mL (≈ 4.85 µM)
MIC (H. influenzae ATCC49247): 16 µg/mL (≈ 19.4 µM)
MIC (S. pneumoniae ATCC 49619): ≤ 0.0312 µg/mL
MIC (S. aureus USA600, GISA): > 32 µg/mL
MIC [5]: ≤ 0.0312 µg/mL
MIC (S. aureus MRSA: USA100): > 32 µg/mL
MIC (K. pneumoniae SHV-12): > 32 µg/mL
MIC [6]: 0.5 µg/mL (≈ 0.606 µM)
MIC (E. faecalis ATCC 29212): 1 µg/mL (≈ 1.21 µM)
MIC (A. baumannii ATCC 19606): > 32 µg/mL
MIC [7]: > 32 µg/mL
MIC (K. pneumoniae ATCC 10031): 16 µg/mL (≈ 19.4 µM)
MIC [8]: > 32 µg/mL
MIC (K. pneumoniae KPC-2): > 32 µg/mL
MIC (A. baumannii IMP-4): > 32 µg/mL
MIC (S. pyogenes ATCC 19615): ≤ 0.0312 µg/mL
MIC [9]: > 32 µg/mL
MIC [10]: > 32 µg/mL
MIC (P. aeruginosa ATCC 27853): > 32 µg/mL
